In assay [1] the test system is Phosphorylation of ERK1/2 in A549 cells. Kind of assay: Phospho-ERK1/2 MSD assay in A549 cells. In kind it is cell-based. Here is the method:
For compounds in Table 89, the following assay conditions were employed:
Phospho-ERK1/2 MSD Assay:
Sixteen hours prior to compound treatment, MIA PaCa-2 or A549 cells were seeded in 96-well cell culture plates at a density of 25,000 cells/well and incubated at 37° C., 5% CO2. A compound dose-response titration was diluted in growth media, added to appropriate wells of a cell culture plate, and then incubated at 37° C., 5% CO2 for 2 or 4 hours (see Table 15). Following compound treatment, cells were stimulated with 10 ng/mL EGF (Roche 11376454001) for 10 min, washed with ice-cold Dulbecco's phosphate-buffered saline, no Ca^2+ or Mg^2+ (ThermoFisher Scientific 14190144), and then lysed in RIPA buffer (50 mM Tris-HCl pH 7.5, 1% Igepal, 0.5% sodium deoxycholate, 150 mM NaCl, and 0.5% sodium dodecyl sulfate) containing protease inhibitors (Roche 4693132001) and phosphatase inhibitors (Roche 4906837001). Phosphorylation of ERK1/2 in compound-treated lysates was assayed using Phospho-ERK1/2 Whole Cell Lysate kits (Meso Scale Discovery K151DWD) according to the manufacturer's protocol. Assay plates were read on a Meso Scale Discovery Sector Imager 6000, and data were analyzed using a 4-parameter logistic model to calculate IC50 values.

Assay [2] concerns Phosphorylation of ERK1/2 in MIA PaCa-2 cells. Kind of assay: Phospho-ERK1/2 MSD assay in MIA PaCa-2 cells. In kind it is cell-based. The procedure, abridged:
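IC50 comes from a 4-parameter logistic fit of MSD phospho-ERK1/2 signal in lysates. Before lysis, MIA PaCa-2 or A549 cells were exposed to titrated compound for 2 or 4 h at 37 °C, followed by a 10 min 10 ng/mL EGF stimulus.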

For assay [3], the target named is GDP-bound KRAS protein (aa 1-169), containing both G12C and C118A amino acid substitutions (Homo sapiens, UniProt P01116, C118A/G12C). Description: Coupled nucleotide exchange assay (SOS-mediated, AlphaScreen). The class given is biochemical. The following applies: 5 min compound pre-incubation.
Chain of GDP-bound KRAS protein (aa 1-169), containing both G12C and C118A amino acid substitutions (P01116 1-169 isoform P01116-2 G12C/C118A): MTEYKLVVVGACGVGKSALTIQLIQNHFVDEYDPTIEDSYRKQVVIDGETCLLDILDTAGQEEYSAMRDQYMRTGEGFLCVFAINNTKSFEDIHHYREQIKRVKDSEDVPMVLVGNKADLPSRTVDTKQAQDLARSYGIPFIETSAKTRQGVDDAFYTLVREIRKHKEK
[4] abbreviates: Homo sapiens, A549, 2 h, read-out: p-ERK IC50 (2 h; A549), 2 h compound treatment.
Setting [5] is: Homo sapiens, MIA PaCa-2, 4 h, read-out: p-ERK IC50 (4 h; MIA PaCa-2), 4 h compound treatment.
Where [6] appears, read: Homo sapiens, A549, 4 h, read-out: p-ERK IC50 (4 h; A549), 4 h compound treatment.
[7] abbreviates: Homo sapiens, MIA PaCa-2, 2 h, read-out: p-ERK IC50 (2 h; MIA PaCa-2), 2 h compound treatment.
[8] abbreviates: read-out: p-ERK IC50 (2 h; MIA PaCa-2), 2 h compound treatment.

SMILES strings stand for the structures. Read-outs that look alike come from different tables or passages of the source. Bounds are passed on as bounds.

What is called IC50 is the concentration that inhibits the measured activity by half. `C=CC(=O)N1CCN(c2nc(=O)n(-c3ccccc3C(C)C)c3cc(-c4ccccc4C(F)(F)F)c(Cl)cc23)[C@@H](C)C1` [Example 62-2, 6-chloro-4-((2S)-2-methyl-4-(2-propenoyl)-1-piperazinyl)-1-(2-(2-propanyl)phenyl)-7-(2-(trifluoromethyl)phenyl)-2(1H)-quinazolinone]: the IC50 in assay [1] (setting [4]) was at least 10 µM.

Turning to `C=CC(=O)N1CCN(c2nc(=O)n(C(C(C)C)C(C)C)c3nc(Cl)c(Cl)cc23)CC1` [Example 60-35, 6,7-dichloro-1-(2,4-dimethyl-3-pentanyl)-4-(4-(2-propenoyl)-1-piperazinyl)pyrido[2,3-d]pyrimidin-2(1H)-one], the IC50 is 10.7 µM in assay [2] (setting [5]) and 46.2 µM in assay [1] (setting [6]).

With `C=CC(=O)N1CCN(c2nc(=O)n(C(CC)CC)c3nc(-c4ccccc4F)c(Cl)cc23)[C@@H](C)C1` [Example 54-2, 6-chloro-7-(2-fluorophenyl)-4-((2S)-2-methyl-4-(2-propenoyl)-1-piperazinyl)-1-(3-pentanyl) pyrido[2,3-d]pyrimidin-2(1H)-one], the 50% inhibitory concentration (IC50) in assay [2] (setting [7]) was 66.6 µM; in assay [2] (setting [5]), 55.6 µM; in assay [1] (setting [4]) it was at least 100 µM; in assay [1] (setting [6]), at least 100 µM.

For `C=CC(=O)N1CCN(c2nc(=O)n(-c3ccccc3C(C)C)c3nc(-c4ccccc4F)c(Cl)cc23)[C@@H](C)C1` [Example 54-86, 6-chloro-7-(2-fluorophenyl)-4-((2S)-2-methyl-4-(2-propenoyl)-1-piperazinyl)-1-(2-(2-propanyl)phenyl)pyrido [2,3-d]pyrimidin-2(1H)-one], the values for the IC50 in assay [2] (setting [7]) and in assay [1] (setting [4]) were 0.09 µM and at least 33.3 µM, respectively.

With `C=CC(=O)N1CCN(c2nc(=O)n(-c3ccccc3C(C)C)c3nc(Cl)c(Cl)cc23)CC1` [Example 54-80, 6,7-dichloro-1-(2-(2-propanyl)phenyl)-4-(4-(2-propenoyl)-1-piperazinyl) pyrido[2,3-d]pyrimidin-2(1H)-one], the values for the IC50 in assay [2] (setting [5]) and in assay [1] (setting [6]) were 5.64 µM and at least 100 µM, respectively.

Turning to `C=CC(=O)N1CCN(c2nc(=O)n(-c3ccccc3C(C)C)c3cc(-c4ccccc4F)c(Cl)cc23)CC1` (single isomer, unassigned) [Example 88-1, 6-chloro-7-(2-fluorophenyl)-1-(2-(2-propanyl)phenyl)-4-(4-(2-propenoyl)-1-piperazinyl)-2(1H)-quinazolinone], the concentration for half-maximal inhibition (IC50) in assay [1] (setting [4]) was at least 10 µM.

Turning to `C=CC(=O)N1CCN(c2nc(=O)n(-c3ccccc3C(C)C)c3nc(-c4c(O)cccc4F)c(Cl)cc23)CC1` (single isomer, unassigned) [Example 60-24-1, (M)-6-chloro-7-(2-fluoro-6-hydroxyphenyl)-1-(2-(2-propanyl)phenyl)-4-(4-(2-propenoyl)-1-piperazinyl)pyrido[2,3-d]pyrimidin-2(1H)-one], the IC50 in assay [1] (setting [4]) was at least 100 µM.

Take `C=CC(=O)N1CCN(c2nc(=O)n(-c3ccccc3C(C)C)c3nc(-c4ccccc4Cl)c(Cl)cc23)[C@@H](C)C1` (single isomer, unassigned) [Example 54-84-1]: the half-maximal inhibitory concentration (IC50) in assay [2] (setting [8]) is 0.744 µM; in assay [1] (setting [4]), at least 100 µM.

On to `C=CC(=O)N1CCN(c2nc(=O)n(-c3ccccc3C(C)C)c3nc(-c4ccccc4Cl)c(Cl)cc23)[C@@H](C)C1` [Example 54-84, 6-chloro-7-(2-chlorophenyl)-4-((2S)-2-methyl-4-(2-propenoyl)-1-piperazinyl)-1-(2-(2-propanyl)phenyl)pyrido [2,3-d]pyrimidin-2(1H)-one], for which the IC50 in assay [2] (setting [7]) is 0.054 µM; in assay [2] (setting [5]), 0.084 µM; in assay [1] (setting [4]), at least 100 µM; in assay [1] (setting [6]), at least 100 µM.

`C=CC(=O)N1CCN(c2nc(=O)n(-c3ccccc3C(C)C)c3nc(Oc4cccc(F)c4)c(Cl)cc23)CC1` [Example 60-23, 6-chloro-7-(3-fluorophenoxy)-1-(2-(2-propanyl)phenyl)-4-(4-(2-propenoyl)-1-piperazinyl)pyrido[2,3-d]pyrimidin-2(1H)-one]: the results for the half-maximal inhibitory concentration (IC50) in assay [2] (setting [5]) and in assay [1] (setting [6]) were 4.49 µM and 37.9 µM, respectively.

For the compound `C=CC(=O)N1CCN(c2nc(=O)n(-c3c(CC)cccc3CC)c3nc(-c4c(C)ccc5[nH]ncc45)c(Cl)cc23)[C@@H](C)C1` [Example 54-66, 6-chloro-1-(2,6-diethylphenyl)-7-(5-methyl-1H-indazol-4-yl)-4-((2S)-2-methyl-4-(2-propenoyl)-1-piperazinyl) pyrido[2,3-d]pyrimidin-2(1H)-one], the IC50 is 0.1 µM in assay [2] (setting [7]), 0.122 µM in assay [2] (setting [5]), at least 10 µM in assay [1] (setting [4]) and at least 100 µM in assay [1] (setting [6]).

`C=CC(=O)N1CCN(c2nc(=O)n(-c3ccccc3C(C)C)c3nc(N4CCCCC4)c(Cl)cc23)[C@@H](C)C1` [Example 69-1, 6-Chloro-4-((2S)-2-methyl-4-(2-propenoyl)-1-piperazinyl)-7-(1-piperidinyl)-1-(2-(2-propanyl)phenyl)pyrido[2,3-d]pyrimidin-2(1H)-one]: the half-maximal inhibitory concentration (IC50) in assay [2] (setting [5]) amounted to 1.86 µM; in assay [1] (setting [6]) it was 64.8 µM.

As for `C=CC(=O)N1CCN(c2nc(=O)n([C@@H]3CCc4ccccc43)c3nc(-c4ccccc4F)c(Cl)cc23)[C@@H](C)C1` [Example 54-67, 6-chloro-1-((1R)-2,3-dihydro-1H-inden-1-yl)-7-(2-fluorophenyl)-4-((2S)-2-methyl-4-(2-propenoyl)-1-piperazinyl) pyrido[2,3-d]pyrimidin-2(1H)-one], the IC50 in assay [2] (setting [7]) and in assay [1] (setting [4]) was at least 10 µM each time.

With `C=CC(=O)N1CCN(c2nc(=O)n(-c3ccccc3C(C)C)c3cc(-c4ccccc4F)c(Cl)cc23)[C@@H](C)C1` [Example 62-1, (S)-4-(4-acryloyl-2-methylpiperazin-1-yl)-6-chloro-7-(2-fluorophenyl)-1-(2-isopropylphenyl)quinazolin-2(1H)-one], the IC50 in assay [2] (setting [7]) is 0.116 µM; in assay [1] (setting [4]), at least 100 µM.

For `C=CC(=O)N1CCN(c2nc(=O)n(-c3ccccc3C(C)C)c3cc(Br)c(Cl)cc23)[C@@H](C)C1` (single isomer, unassigned) [Example 9-17-1], the half-maximal inhibitory concentration (IC50) in assay [2] (read-out: p-ERK IC50 (4 h; MIA PaCa-2), 4 h compound treatment) is 2.18 µM; in assay [1] (read-out: p-ERK IC50 (4 h; A549), 4 h compound treatment), 75.8 µM.

On to `C=CC(=O)N1CCN(c2nc(=O)n(-c3ccccc3C(C)C)c3cc(-c4ccccc4F)c(Cl)cc23)[C@@H](C)C1` (single isomer, unassigned) [Example 62-1-1], for which the results for the IC50 in assay [2] (setting [8]) and in assay [1] (setting [4]) were 0.431 µM and at least 10 µM, respectively.

On to `C=CC(=O)N1CCN(c2nc(=O)n(-c3c(CC)cccc3CC)c3nc(C4CCCC4)c(Cl)cc23)[C@@H](C)C1` [Example 54-4, 6~chloro-7-cyclopentyl-1-(2,6-diethylphenyl)-4-((2S)-2-methyl-4-(2-propenoyl)-1-piperazinyl) pyrido[2,3-d]pyrimidin-2(1H)-one], for which the IC50 is 2.25 µM in assay [2] (setting [7]) and 48.9 µM in assay [1] (setting [4]).

In the case of `C=CC(=O)N1CCN(c2nc(=O)n(-c3ccccc3C(C)C)c3cc(Br)c(Cl)cc23)[C@@H](C)C1` [Example 9-17], the figures for the IC50 in assay [2] (setting [5]) and in assay [1] (setting [6]) were 1.11 µM and 74.4 µM, respectively.

For the compound `C=CC(=O)N1CCN(c2nc(=O)n(-c3c(C)cccc3C(C)C)c3nc(-c4c(O)cccc4Cl)c(F)cc23)[C@@H](C)C1` [Example 68-1, 7-(2-Chloro-6-hydroxyphenyl)-6-fluoro-1-(2-methyl-6-(2-propanyl)phenyl)-4-((2S)-2-methyl-4-(2-propenoyl)-1-piperazinyl)pyrido[2,3-d]pyrimidin-2(1H)-one], the “Coupled exchange IC50 (5 min)” value in assay [3] is recorded as 0.111 | nda μM. Also, in assay [2] (setting [7]), the 50% inhibitory concentration (IC50) stood at 0.214 µM.

Take `C=CC(=O)N1CCN(c2nc(=O)n(-c3scnc3C(C)C)c3nc(-c4ccccc4F)c(Cl)cc23)[C@@H](C)C1` [Example 55-18, 6-chloro-7-(2-fluorophenyl)-4-((2S)-2-methyl-4-(2-propenoyl)-1-piperazinyl)-1-(4-(2-propanyl)-1,3-thiazol-5-yl)pyrido[2,3-d]pyrimidin-2(1H)-one]: the “Coupled exchange IC50 (5 min)” value in assay [3] is listed as 0.067 | nda μM. The IC50 in assay [2] (setting [7]) worked out at 0.083 µM.

`C=CC(=O)N1CCN(c2nc(=O)n(-c3c(C)cccc3CC)c3nc(-c4ccccc4F)c(Cl)cc23)[C@@H](C)C1` (single isomer, unassigned) [Example 55-9-1]: in assay [3], the “Coupled exchange IC50 (5 min)” value was 0.804 | nda μM. The IC50 in assay [2] (setting [8]) came out at 1.35 µM.

Consider `C=CC(=O)N1CCN(c2nc(=O)n(-c3scnc3C(C)C)c3cc(-c4ccccc4F)c(Cl)cc23)[C@@H](C)C1` [Example 105, 6-Chloro-7-(2-fluorophenyl)-4-((2S)-2-methyl-4-(2-propenoyl)-1-piperazinyl)-1-(4-(2-propanyl)-1,3-thiazol-5-yl)-2(1H)-quinazolinone], for which, in assay [3], the “Coupled exchange IC50 (5 min)” value was 0.051 | nda μM. The IC50 in assay [2] (setting [7]) was found to be 0.065 µM.

The record behind these values is US11090304B2 (Amgen Inc., priority 2018, dated 2021).
